Assay results from US7319109B2, “Farnesoid X receptor agonists” (Smith Kline Beecham Corporation, priority 2002, dated 2008).

Target: T1, Human FXRα Ligand Binding Domain (FXRα LBD) (Homo sapiens, UniProt Q96RI1)
T1 construct: polyhistidine (N); made in house; host or cells: E. coli BL21 (DE3), pRSET-A vector
T1 sequence (Q96RI1 222-472 isoform Q96RI1-2): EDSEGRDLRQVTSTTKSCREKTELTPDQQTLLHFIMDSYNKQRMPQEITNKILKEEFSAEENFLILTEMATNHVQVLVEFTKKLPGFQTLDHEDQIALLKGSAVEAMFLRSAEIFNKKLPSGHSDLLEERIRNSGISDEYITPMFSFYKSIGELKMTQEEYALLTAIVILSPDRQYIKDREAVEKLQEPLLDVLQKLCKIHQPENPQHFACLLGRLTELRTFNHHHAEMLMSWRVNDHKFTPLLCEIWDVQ
Test: FXR Affinity Binding Assay: ligand mediated cofactor peptide (SRC-1 LCD2, 676-700) interaction, time resolved fluorescence
Conditions: FXRα LBD-APC / europium labeled SRC-1 peptide, TRF signal, at least 2 hours at room temperature; read-out: Activity (pEC50) (converted)
Experimental: Determination of a ligand mediated cofactor peptide interaction to quantify ligand binding to the nuclear receptor Farnasoid X Receptor (FXR). The method measures the ability of putative ligands to modulate the interaction between the purified bacterial expressed FXRα (LBD) and a synthetic biotinylated peptide based on residues 676-700 of SRC-1(LCD2, 676-700). […] Detection of the associated complex is measured by time resolved fluorescence (TRF). The purified LBD of FXR is labeled with biotin then mixed with stoichiometric amounts of APC labeled streptavidin (Molecular Probes). The biotinylated peptide is then mixed with a ½ stoichiometric amount of europium labeled streptavidin (Wallac Inc). Each is then blocked with a 5 fold excess of biotin and allowed to equilibrate for 15 min. Equimolar amounts of receptor and peptide are mixed together and allowed to equilibrate for at least 30 min prior to the addition to either a variable or constant concentrations of the sample for which the affinity is to be determined. After equilibration, the time-resolved fluorescent signal is quantitated using a fluorescent plate reader. The affinity of the test compound is estimated from a plot of fluorescence versus concentration of test compound added.
Ligands that promote the complex formation induce a concentration-dependent increase in time-resolved fluorescent signal.
Human FXRα Ligand Binding Domain (FXRα LBD) was expressed in E.coli strain BL21 (DE3) as an amino-terminal polyhistidine tagged fusion protein. Expression was under the control of an IPTG inducible T7 promoter. DNA encoding this recombinant protein was subcloned into the pRSET-A expression vector (Invitrogen). The coding sequence of Human FXRα LBD was derived from Genbank accession number U 68233 (amino acids 222 to 472).
Routinely, 30-40 g cell paste (equivalent to 2-3 liters of the fermentation batch) was resuspended in 200-250 mL TBS, pH 7.2 (25mM Tris, 150 mM NaCl). Cells were lysed by passing 3 times through a French Press and cell debris was removed by centrifugation (30 minutes, 20,000 g, 4° C.). The cleared supernatant was filtered through course pre-filters, and TBS, pH 7.2, containing 500 mM imidazole was added to obtain a final imidazole concentration of 50 mM. This lysate was loaded onto a column (6×8 cm) packed with Sepharose [Ni^++ charged]Chelation resin (Pharmacia) and pre-equilibrated with TBS pH 7.21 50 mM imidazole. After washing to baseline absorbance with equilibration buffer, the column was washed with one column volume of TBS pH 7.2 containing 90 mM imidazole. FXRαLBD was eluted directly with 365 mM imidazole. Column fractions were pooled and dialyzed against TBS, pH 7.2, containing 0.5 mM EDTA and 5 mM DTT. The dialyzed protein sample was concentrated using Centri-prep 10 K (Amicon) and subjected to size exclusion, using a column (3×90 cm) packed with Sepharose S-75 resin (Pharmacia) pre-equilibrated with TBS, pH 7.2, containing 0.5 mM EDTA and 5 mM DTT.
Purified FXRα LBD was desalted/buffer exchanged using PD-10 gel filtration columns into PBS [100 mM NaPhosphate, pH 7.2, 150 mM NaCl]. FXRα LBD was diluted to approximately 10 μM in PBS and five-fold molar excess of NHS-LC-Biotin (Pierce) was added in a minimal volume of PBS. This solution was incubated with gentle mixing for 30 minutes at room temperature. The biotinylation modification reaction was stopped by the addition of 2000× molar excess of Tris-HCl, pH 8. The modified FXRα LBD was dialyzed against 4 buffer changes, each of at least 50 volumes, PBS containing 5 mM DTT, 2 mM EDTA and 2% sucrose.

Row | Compound | EC50
1 | Cc1cc(OCc2c(-c3c(Cl)cccc3Cl)noc2C(C)C)ccc1N(C)S(=O)(=O)c1cccc(C(=O)O)c1 [Example 48, 3-{[(4-{[3-(2,6-Dichlorophenyl)-5-isopropylisoxazol-4-yl]methoxy}-2-methylphenyl)-(methyl)amino]sulfonyl}benzoic acid] | < 100 nM
2 | CC(C)c1onc(-c2c(Cl)cccc2Cl)c1COc1ccc(N(C)S(=O)(=O)c2cccc(C(=O)O)c2)cc1 [Example 49, 3-{[(4-{[3-(2,6-Dichlorophenyl)-5-isopropylisoxazol-4-yl]methoxy}phenyl)(methyl)-amino]sulfonyl}benzoic acid] | 102 to 1000 nM
3 | CCN(c1ccc(OCc2c(-c3c(Cl)cccc3Cl)noc2C(C)C)cc1Cl)S(=O)(=O)c1cccc(C(=O)O)c1 [Example 50] | < 100 nM
4 | CCN(c1ccc(OCc2c(-c3c(Cl)cccc3Cl)noc2C(C)C)cc1)S(=O)(=O)c1cccc(C(=O)O)c1 [Example 52, 3-{[(4-{[3-(2,6-Dichlorophenyl)-5-isopropylisoxazol-4-yl]methoxy}phenyl)(ethyl)-amino]sulfonyl}benzoic acid] | 102 to 1000 nM
5 | COC(=O)c1ccc(S(=O)(=O)Nc2ccc(OCc3c(-c4c(Cl)cccc4Cl)noc3C(C)C)cc2Cl)cc1 [Example 53, Methyl 4-{[(2-chloro-4-{[3-(2,6-dichlorophenyl)-5-isopropylisoxazol-4-yl]methoxy}-phenyl)amino]sulfonyl}benzoate] | 102 to 1000 nM
6 | COC(=O)c1ccc(S(=O)(=O)Nc2ccc(OCc3c(-c4c(Cl)cccc4Cl)noc3C(C)C)cc2C)cc1 [Example 54, Methyl 4-{[(4-{[3-(2,6-dichlorophenyl)-5-isopropylisoxazol-4-yl]methoxy}-2-methyl-phenyl)amino]sulfonyl}benzoate] | < 100 nM
7 | COC(=O)c1ccc(S(=O)(=O)Nc2ccc(OCc3c(-c4c(Cl)cccc4Cl)noc3C(C)C)cc2)cc1 [Example 55, Methyl 4-{[(4-{[3-(2,6-dichlorophenyl)-5-isopropylisoxazol-4-yl]methoxy}phenyl)-amino]sulfonyl}benzoate] | 1020 to 10000 nM
8 | CC(C)c1onc(-c2c(Cl)cccc2Cl)c1COc1ccc(NS(=O)(=O)c2ccc(C(=O)O)cc2)c(Cl)c1 [Example 56, 4-{[(2-Chloro-4-{[3-(2,6-dichlorophenyl)-5-isopropylisoxazol-4-yl]methoxy}phenyl)-amino]sulfonyl}benzoic acid] | 1020 to 10000 nM
9 | Cc1cc(OCc2c(-c3c(Cl)cccc3Cl)noc2C(C)C)ccc1NS(=O)(=O)c1ccc(C(=O)O)cc1 [Example 57, 4-{[(4-{[3-(2,6-Dichlorophenyl)-5-isopropylisoxazol-4-yl]methoxy}-2-methylphenyl)-amino]sulfonyl}benzoic acid] | 102 to 1000 nM
10 | CC(C)c1onc(-c2c(Cl)cccc2Cl)c1COc1ccc(NS(=O)(=O)c2ccc(C(=O)O)cc2)cc1 [Example 58, 4-{[(4-{[3-(2,6-Dichlorophenyl)-5-isopropylisoxazol-4-yl]methoxy}phenyl)amino]-sulfonyl}benzoic acid] | 102 to 1000 nM

Second part, the compound after the results:

Row | EC50 | Compound
11 | 102 to 1000 nM | COC(=O)c1ccc(S(=O)(=O)N(C)c2ccc(OCc3c(-c4c(Cl)cccc4Cl)noc3C(C)C)cc2C)cc1 [Example 59, Methyl 4-{[(4-{[3-(2,6-dichlorophenyl)-5-isopropylisoxazol-4-yl]methoxy}-2-methyl-phenyl)(methyl)amino]sulfonyl}benzoate]
12 | 1020 to 10000 nM | COC(=O)c1ccc(S(=O)(=O)N(C)c2ccc(OCc3c(-c4c(Cl)cccc4Cl)noc3C(C)C)cc2)cc1 [Example 60, Methyl 4-{[(4-{[3-(2,6-dichlorophenyl)-5-isopropylisoxazol-4-yl]methoxy}phenyl)-(methyl)amino]sulfonyl}benzoate]
13 | 1020 to 10000 nM | CCN(c1ccc(OCc2c(-c3c(Cl)cccc3Cl)noc2C(C)C)cc1)S(=O)(=O)c1ccc(C(=O)OC)cc1 [Example 61, Methyl 4-{[(4-{[3-(2,6-dichlorophenyl)-5-isopropylisoxazol-4-yl]methoxy}phenyl)-(ethyl)amino]sulfonyl}benzoate]
14 | < 100 nM | CC(C)c1onc(-c2c(Cl)cccc2Cl)c1COc1ccc(N(C)S(=O)(=O)c2ccc(C(=O)O)cc2)c(Cl)c1 [Example 62, 4-{[(2-Chloro-4-{[3-(2,6-dichlorophenyl)-5-isopropylisoxazol-4-yl]methoxy}phenyl)-(methyl)amino]sulfonyl}benzoic acid]
15 | 102 to 1000 nM | Cc1cc(OCc2c(-c3c(Cl)cccc3Cl)noc2C(C)C)ccc1N(C)S(=O)(=O)c1ccc(C(=O)O)cc1 [Example 63, 4-{[(4-{[3-(2,6-Dichlorophenyl)-5-isopropylisoxazol-4-yl]methoxy}-2-methylphenyl)-(methyl)amino]sulfonyl}benzoic acid]
16 | 102 to 1000 nM | CC(C)c1onc(-c2c(Cl)cccc2Cl)c1COc1ccc(N(C)S(=O)(=O)c2ccc(C(=O)O)cc2)cc1 [Example 64, 4-{[(4-{[3-(2,6-Dichlorophenyl)-5-isopropylisoxazol-4-yl]methoxy}phenyl)(methyl)-amino]sulfonyl}benzoic acid]
17 | < 100 nM | CCN(c1ccc(OCc2c(-c3c(Cl)cccc3Cl)noc2C(C)C)cc1Cl)S(=O)(=O)c1ccc(C(=O)O)cc1 [Example 65, 4-{[(2-Chloro-4-{[3-(2,6-dichlorophenyl)-5-isopropylisoxazol-4-yl]methoxy}phenyl)-(ethyl)amino]sulfonyl}benzoic acid]
18 | 102 to 1000 nM | CCN(c1ccc(OCc2c(-c3c(Cl)cccc3Cl)noc2C(C)C)cc1C)S(=O)(=O)c1ccc(C(=O)O)cc1 [Example 66, 4-{[(4-{[3-(2,6-Dichlorophenyl)-5-isopropylisoxazol-4-yl]methoxy}-2-methylphenyl)-(ethyl)amino]sulfonyl}benzoic acid]
19 | 102 to 1000 nM | CCN(c1ccc(OCc2c(-c3c(Cl)cccc3Cl)noc2C(C)C)cc1)S(=O)(=O)c1ccc(C(=O)O)cc1 [Example 67, 4-{[(4-{[3-(2,6-Dichlorophenyl)-5-isopropylisoxazol-4-yl]methoxy}phenyl)(ethyl)amino]-sulfonyl}benzoic acid]
20 | 1020 to 10000 nM | CC(C)c1onc(-c2ccccc2OC(F)(F)F)c1COc1ccc(NS(=O)(=O)c2cccc(C(=O)O)c2)c(Cl)c1 [Example 68, 3-({[2-Chloro-4-({5-isopropyl-3-[2-(trifluoromethoxy)phenyl]isoxazol-4-yl}methoxy)-phenyl]amino}sulfonyl)benzoic acid]
21 | 102 to 1000 nM | Cc1cc(OCc2c(-c3ccccc3OC(F)(F)F)noc2C(C)C)ccc1NS(=O)(=O)c1cccc(C(=O)O)c1 [Example 69, 3-({[4-({5-Isopropyl-3-[2-(trifluoromethoxy)phenyl]isoxazol-4-yl}methoxy)-2-methyl-phenyl]amino}sulfonyl)benzoic acid]
22 | 102 to 1000 nM | COC(=O)c1cccc(S(=O)(=O)N(C)c2ccc(OCc3c(-c4ccccc4OC(F)(F)F)noc3C(C)C)cc2Cl)c1 [Example 70, Methyl 3-{[[2-chloro-4-({5-isopropyl-3-[2-(trifluoromethoxy)phenyl]-isoxazol-4-yl}methoxy)phenyl](methyl)amino]sulfonyl}benzoate]
23 | 102 to 1000 nM | COC(=O)c1cccc(S(=O)(=O)N(C)c2ccc(OCc3c(-c4ccccc4OC(F)(F)F)noc3C(C)C)cc2C)c1 [Example 71, Methyl 3-{[[4-({5-isopropyl-3-[2-(trifluoromethoxy)phenyl]isoxazol-4-yl}methoxy)-2-methylphenyl](methyl)amino]sulfonyl}benzoate]
